Source: publication PMC6631119, “Nasal Administration and Plasma Pharmacokinetics of Parathyroid Hormone Peptide PTH 1-34 for the Treatment of Osteoporosis” (Pharmaceutics, 2019)
Read-outs that look alike come from different tables or passages of the source.

Assays:
[1] = Healthy human volunteer plasma pharmacokinetics of PTH 1-34 (open cross-over, ELISA); format: in vivo
Procedure: An open cross-over clinical IMP (investigative medicinal product) study was conducted in seven healthy female subjects aged over 55 years (mean age 67.7, range 58 to 81 years). Each participant provided informed consent in accordance with ethical committee requirements and good clinical practice. Pre-study screening assessments were carried out within 21 days of the participants receiving their first dose (Supplementary Materials: Section S1). Inclusion and exclusion criteria were applied (Supplementary Materials: Section S2). Participants were admitted to the study centre on the morning of dosing, having abstained from alcohol and smoking for at least 24 h previously and fasted from midnight. Participants were given a light meal on arrival. A cannula was then positioned in the participant’s arm or hand to facilitate the collection of blood samples. The pre-dose sample was taken. Participants received a single subcutaneous injection of 20 μg teriparatide into the abdomen at their first trial visit. Following a seven day wash out period, each participant self-administered 90 μg PTH 1-34 from the nasal spray formulation using the Rexam SP270 nasal spray device; the patients had previously been trained in operation of the Rexam device. Any episodes of sneezing after administration of the nasal formulation were recorded. The nasal spray formulation contained Tc-99m-DTPA, 3–5 MBq per Rexam SP270 nasal spray dose, resulting in an effective radiation dose of less than 0.14 mSv to each participant.
Following either subcutaneous or intranasal dosing, 10 mL blood samples (Becton Dickinson sodium heparin) were taken at 5, 15, 30, 60 120, 180, 240, 300 and 360 min. After each sample was taken, the cannula was flushed with 10 mL 0.9% saline. Blood was stored on ice and centrifuged within 30 min to prepare plasma (4 °C, 1100–1300 g, 10 min). These samples were stored at −20 °C before dispatching to Simbec Research Ltd. (Merthyr Tydfil, UK) for quantification by validated ELISA, in compliance with The UK Good Laboratory Practice Regulations 1999 (Statutory Instrument No. 310 6) and subsequent amendment, OECD Principles of Good Laboratory Practice (Paris 1998) and EC Commission Directive 2004/10/EC of February 2004.
Pharmacokinetic data were analysed using Phoenix® WinNonlin® 5.1 (Certara USA, Inc., Princeton, NJ, USA) from quantified PTH 1-34 in the plasma, using recorded sampling times. Summary statistics (mean, median, SD, coefficient of variation [CV%], minimum, maximum, n) and the following plasma pharmacokinetic parameters were calculated: • Cmax • Tmax • Terminal half-life (t1/2) • AUC to 2 h (AUC0–2h) • AUC to last measured time point (AUClast) and corresponding Frel for nasal formulation

[2] = HPLC integrity of spray dried PTH 1-34; format: physicochemical; conditions: spray dried dry powder formulations during formulation development, inlet 85 °C
Procedure: The dry powder formulation was also prepared at CPL as 1% w/w PTH (1-34) with 39% Gellan gum, 40% Solutol® HS15, 20% Trehalose. In brief, 97.5 mg Gellan gum was dissolved in 50 mL ultra-pure water overnight. Solutol® HS15 was rendered molten (60 ± 10 °C), and 100 mg was added to the Gellan gum solution and mixed for 30–45 min at 60 °C. 50 mg of trehalose was added and mixed for a further 10 min. A total 5 mg of PTH 1-34 was dissolved in 5 mL of ultra-pure water, and 2.5 mL was added to the formulation. Particles were prepared using a spray dryer Mini Spray Dryer B-290 (Buchi UK Ltd., Oldham, UK) with the inlet set at 85 °C (outlet modified by inlet temperature), the aspirator 100%, the pump set at 006 equivalent to 2 mL/ min, the spray pressure at 4 bar. Particle size of the dry powder formulation manufactured for use in the sheep was not measured, due to limited availability of material due to batch size. However, the particle size of similar formulations when prepared for loading into the delivery devices was monitored using Helos/BF (Sympatec GmbH, Clausthal-Zellerfeld, Germany) during formulation development, where the VMD was 73.7–91.8 µm (×10 = 10.6–23.7 µm, ×50 = 51.5–98.1 µm, ×90 = 142–153 µm). A total 2.4–2.8% of particles were below 10 µm. As the vast majority of particles were >10 µm, the formulations would be expected to be nasally deposited.

[3] = cited from earlier work
Text: Nasal delivery of large peptides such as parathyroid 1-34 (PTH 1-34) can benefit from a permeation enhancer to promote absorption across the nasal mucosa into the bloodstream. […] We report here the plasma pharmacokinetics of PTH 1-34 in healthy human volunteers receiving the liquid nasal spray formulation containing Solutol® HS15 ... || Our previously published preclinical data in rats for a liquid nasal spray formation were encouraging, showing that the nasal systemic absorption of PTH 1-34 was increased considerably when administered in a formulation containing Solutol® HS15. […] This was not consistent with the previous data from our small animal preclinical studies. In the preceding preclinical conscious rat model, we reported the pharmacokinetic performance of an […] PTH 1-34 subcutaneous formulation, an intranasal liquid formulation with no enhancer and an intranasal solution containing Solutol® HS15. PTH 1-34 doses of 80 μg/kg by subcutaneous injection and 100 μg/kg intranasally were given to rats. T ...

[4] = post-menopausal women with osteoporosis, 20 μg PTH 1-34 subcutaneous dose, reported by the manufacturers of the commercial formulation; cited from earlier work
[5] = healthy female volunteers aged over 55 y, single 20 μg teriparatide subcutaneous injection into abdomen (Forsteo pen), plasma ELISA, mean of n = 7
[6] = conscious rat, intranasal liquid formulation without enhancer, 100 μg/kg

Work on `CC[C@H](C)[C@H](NC(=O)[C@H](CCC(=O)O)NC(=O)[C@H](CO)NC(=O)[C@@H](NC(=O)[C@@H](N)CO)C(C)C)C(=O)N[C@@H](CCC(N)=O)C(=O)N[C@@H](CC(C)C)C(=O)N[C@@H](CCSC)C(=O)N[C@@H](Cc1cnc[nH]1)C(=O)N[C@@H](CC(N)=O)C(=O)N[C@@H](CC(C)C)C(=O)NCC(=O)N[C@@H](CCCCN)C(=O)N[C@@H](Cc1cnc[nH]1)C(=O)N[C@@H](CC(C)C)C(=O)N[C@@H](CC(N)=O)C(=O)N[C@@H](CO)C(=O)N[C@@H](CCSC)C(=O)N[C@@H](CCC(=O)O)C(=O)N[C@@H](CCCN=C(N)N)C(=O)N[C@H](C(=O)N[C@@H](CCC(=O)O)C(=O)N[C@@H](Cc1c[nH]c2ccccc12)C(=O)N[C@@H](CC(C)C)C(=O)N[C@@H](CCCN=C(N)N)C(=O)N[C@@H](CCCCN)C(=O)N[C@@H](CCCCN)C(=O)N[C@@H](CC(C)C)C(=O)N[C@@H](CCC(N)=O)C(=O)N[C@@H](CC(=O)O)C(=O)N[C@H](C(=O)N[C@@H](Cc1cnc[nH]1)C(=O)N[C@@H](CC(N)=O)C(=O)N[C@@H](Cc1ccccc1)C(=O)O)C(C)C)C(C)C` [PTH 1-34, PTH 1-34 acetate] yielded a F rel ([1]; female, plasma, inhaled or intranasal, 90 ug, human, 90 μg intranasal vs 20 μg subcutaneous, all seven subjects included in the calculation, read-out: bioavailability after intranasal dosing compared to subcutaneous injection of Forsteo) of 0.26%, a Cmax [1, 5] of 0.253 ng/mL and a t½ [1, 5] of 65 min. The “bioavailability after intranasal dosing compared to subcutaneous injection of Forsteo” value ([1]; human, 90 μg intranasal vs 20 μg subcutaneous, only the subjects with measurable plasma concentrations) was “approximately 1%”, the Tmax ([1]; human, inhaled or intranasal, 90 ug, healthy female volunteers aged over 55 y, single 90 μg PTH 1-34 intranasal liquid spray with 7.5% w/v Solutol HS15 (Rexam SP270), plasma ELISA, mean of n = 7, not detectable in 5 of 7) was 9 min and the Cmax ([1]; human, inhaled or intranasal, 90 ug, healthy female volunteers aged over 55 y, single 90 μg PTH 1-34 intranasal liquid spray with 7.5% w/v Solutol HS15 (Rexam SP270), plasma ELISA, mean of n = 7, not detectable in 5 of 7, read-out: Cmax) was 0.005 ng/mL. For the same compound, the “integrity of the spray dried PTH 1-34: purity by HPLC” value [2] was over 82.5%, the relative bioavailability ([3]; conscious rat, intranasal liquid formulation without enhancer (100 μg/kg) relative to subcutaneous injection (80 μg/kg)) was 8% and the Cmax [3, 6] was 2 ng/mL. For the same compound, the Tmax [3, 6] was 13 min, the Tmax ([3]; conscious rat, intranasal solution containing Solutol HS15, 100 μg/kg) was about 10 min and the relative bioavailability ([3]; rat, intranasal liquid formulation containing Solutol HS15 (100 μg/kg) relative to subcutaneous injection (80 μg/kg)) was 78%. For the same compound, the Cmax ([3]; rat, subcutaneous injection, 80 μg/kg PTH 1-34, mean) was 14.8 ng/mL, the Cmax [4] was about 0.15 ng/mL and the elimination half-life [4] was “approximately 1 h”.
